Earlier results in patent US20090081697A1, “Methods of growing crystals of free and antibiotic complexed large ribosomal subunits, and methods of rationally designing or identifying antibiotics using structure coordinate data derived from such crystals” (Yeda Research and Development Co. Ltd., priority 2001, published 2009).

Columns and labels:
[1] = molecular target: ribosomes; details: compared with erythromycin; Hansen et al. 1999
[2] = relative to erythromycin
[3] = tested on: ribosomes; details: Tenson et al. 1996

Structure (SMILES) | acid stability [2] | also measured
CC[C@H]1OC(=O)[C@H](C)C(=O)[C@H](C)[C@@H](O[C@@H]2O[C@H](C)C[C@H](N(C)C)[C@H]2O)[C@](C)(OC)C[C@@H](C)C(=O)[C@H](C)[C@@H](O)[C@]1(C)O [RU56006] |  | Kd [1]: of the same order of magnitude as that of erythromycin
CC[C@H]1OC(=O)[C@H](C)[C@@H](O[C@H]2C[C@@](C)(OC)[C@@H](O)[C@H](C)O2)[C@H](C)[C@@H](O[C@@H]2O[C@H](C)C[C@H](N(C)C)[C@H]2O)[C@](C)(OC)C[C@@H](C)C(=O)[C@H](C)[C@@H](O)[C@]1(C)O [clarithromycin] | increased acid stability relative to erythromycin | 
CC[C@H]1OC(=O)[C@H](C)[C@@H](O[C@H]2C[C@@](C)(OC)[C@@H](O)[C@H](C)O2)[C@H](C)[C@@H](O[C@@H]2O[C@H](C)C[C@H](N(C)C)[C@H]2O)[C@](C)(O)C[C@@H](C)C(=O)[C@H](C)[C@@H](O)[C@]1(C)O [erythromycin] |  | length of peptides produced by erythromycin-bound ribosomes [3]: up to 8 residues
CC[C@H]1OC(=O)[C@H](C)[C@@H](O[C@H]2C[C@@](C)(OC)[C@@H](O)[C@H](C)O2)[C@H](C)[C@@H](O[C@@H]2O[C@H](C)C[C@H](N(C)C)[C@H]2O)[C@](C)(O)C[C@@H](C)/C(=N\OCOCCOC)[C@H](C)[C@@H](O)[C@]1(C)O [roxithromycin] | increased acid stability relative to erythromycin | 
